In assay [1] the test system is L1210. As to the kind of experiment: Cytotoxicity against mouse L1210 cells. It counts as functional, cell-based.
Assay [2] relates to KB. As to the kind of experiment: Cytotoxicity against human KB cells. It counts as functional, cell-based.

≈ marks a conversion by molar mass, not a printed value.

For `C=C1[C@@H](O)C[C@H]2C(C)(C)[C@@H](O)CC[C@]2(C)[C@H]1C/C=C1\CCOC1=O` [PACOVATININ B], the IC50 in assay [1] and in assay [2] was above 10 µg/mL in each case.

Turning to `C=C1[C@@H](O)C[C@H]2C(C)(C)C(=O)CC[C@]2(C)[C@H]1C/C=C1/CCOC1=O` [PACOVATININ C], the results for the IC50 in assay [1] and in assay [2] were 4.7 µg/mL (≈ 14.1 µM) and 7.3 µg/mL (≈ 22 µM), respectively.

Values taken from ChEMBL document CHEMBL1155756, “Pacovatinins A-C, new labdane diterpenoids from the seeds of Renealmia exaltata” (J Nat Prod, 2001).
